# How the values were obtained:
# Type in all cases: cell-based, rat
# L6-GLUT4myc cells [1] = assay: Uptake of 2-deoxyglucose in L6-GLUT4myc cells with tet-inducible isoform2 of AS160
# Method: For all examples […]T4myc cells containing isoform2 of AS160 were grown in MEMα (PAN) supplemented with 10% fetal calf serum (FCS) (PAA, tet-free), 2 μg/ml blasticidin (Calbiochem), 0.5 μg/ml puromycin (InvivoGen), 200 μg/ml hygromycin (Invitrogen). Expression of isoform2 of AS160 was induced with 1 μg/ml doxycyclin (Sigma). L6-wildtype (wt) (ATCC: CRL-1458) cells were grown in MEMα+GlutaMax (Gibco) supplemented with 10% FCS (PAA, tet-free) and 1% penicillin/streptomycin (PAA). […]T4myc cells were grown in MEMα+GlutaMax (Gibco) supplemented with 10% FCS (PAA, tet-free), 1% penicillin/streptomycin (PAA) and 2 μg/ml blasticidin (Calbiochem). All cells were grown at 37° C. and 5% CO2. […]T4myc cells containing isoform2 of AS160 were incubated in starve medium (MEMα) 3-4 hours prior to each experiment. To examine glucose uptake of the cells, the respective cells were plated in 96 well Cytostar-T scintillating microplates (Amersham). After 48 hours cells were serum-starved (3-4 hours) and treated with inhibitors as indicated. Uptake of 2-deoxyglucose (0.01 MBq per well, Amersham) was performed as already described (Voss et al., 2005). Nonspecific uptake was determined in the presence of 40 μM cytochalasin B (Calbiochem). This value was subtracted from all other values. Measurement occurred in a Wallac Microbeta counter (Perkin Elmer). Uptake of 2-deoxyglucose is presented as counts per […] (cpm).
# AKT (Ser 473) [2] = assay: In-cell western, phospho-AKT
# From the text: (§1) To study phosphorylation of AKT and AS160 the cells described in Example 2 were used. AS160 is activated by phosphorylation on critical motifs (RXRXXS/T). Known phospho-sites in AS160 are Ser 570, Ser 588, Thr 642 and Thr 751 (Sano et al., 2003). One of the kinases responsible for the activation of AS160 is AKT (Kane et al., 2002). In order to determine the activation status of the isoform2 of AS160 the In-cell western blot technique was used. This method allows the detection of specific proteins directly in 96 well plates without preparation of cell extracts. The specific antibody used in this assay recognizes the phosphorylated Thr 642 phosphorylation site of AS160 and AS160-like protein.
# (§2) For this, cells were seeded into 96-well plates (black, Nunc) and grown for 48 hours. Cells were starved for 3-4 hours with MEMα (PAN) containing 2% horse serum (Cambrex). After removal of medium cells were fixed in 3.7% freshly prepared para-formaldehyde (Sigma) for 20 minutes. Cells were permeabilized with PBS+0.1% Triton-X-100. Blocking was performed with Odyssey blocking buffer (Licor) overnight at 4° C. Primary antibodies were incubated for 2 hours at room temperature. The anti-phosphoAKT (Ser 473, Cat No.: 44-621 G) and the anti-phosphoAS160 (Thr 642, Cat No.: 44-1071 G) were from Biosource. After incubation of the primary antibody, cells were washed with PBS+0.1% Tween20. The secondary anti-rabbit-IgG-800-CW antibody (Rockland Cat No.: 611-131-122) was incubated for 1 hour. For detection of DNA TO-PRO3 dye (Molecular Probes, Cat No.: T3605) was used. Fluorescence signals (FIG. 6) are presented as relative units (RU).
# AS160 (Thr 642) = assay: In-cell western, phospho-AS160
# From the text: as §1, §2
# L6-GLUT4myc cells [3] = assay: Tetracycline-inducible GFP expression (functionality of the tet-repressor); conditions: pCDNA5/TO-GFP; addition of doxycyclin; data not shown
# Method: L6-GLUT4myc cells containing AS160-like were grown in MEMα (PAN) supplemented with 10% fetal calf serum (FCS) (PAA, tet-free), 2 μg/ml blasticidin (Calbiochem), 0.5 μg/ml puromycin (InvivoGen), 200 μg/ml hygromycin (Invitrogen). Functionality of the tet-repressor was controlled with a tetracycline-inducible GFP expression plasmid (pCDNA5/TO-GFP). In the absence of tetracycline (or doxycyclin) only a small number of cells express GFP. Addition of doxycyclin increases the number of GFP expressing cells about 10 fold (data not shown).
# AKT (Ser 473) [4] = assay: Western blot of AKT phosphorylation (Ser 473)
# Method: For Western blot analysis proteins were separated on SDS-PAGE gels (4-12% resolving gel, Invitrogen), transferred to PVDF membranes (Roche) and blocked with Roti-Block® (Roth) for 1 hour. Membranes were incubated with primary antibodies overnight. The anti-AS160 antibody was from Upstate. Membranes were washed in TBST and incubated with the appropriate secondary horseradish peroxidase conjugated antibody (Santa Cruz). Immunoreactive bands were visualized with LumiLight (Roche) and detected with Lumi-lmager (Böhringer Ingelheim).
# In order to examine tetracycline- and insulin-dependent expression of isoform2 of AS160 protein in L6-GLUT4myc cells containing AS160-like, a western blot analysis was performed. The expression of AS160-like protein was induced with 1 μg/ml doxycyclin for 48 hours as described above. Subsequently, the cells were stimulated with insulin (5 nM to 50 nM; Sanofi-Aventis) for 20 minutes. Cell extracts were prepared, separated via SDS-PAGE and transferred to a PVDF membrane as described above.
# The AKT inhibitor Calb. had no effect on the phosphorylation of AKT (Ser 473) (FIG. 11A). […] Phosphorylation of AKT on Ser 473 was detected with a phospho-specific antibody from Biosource (Cat No.: 44-621G).
# GLUT4 = GLUT4 translocation, laser-scanning fluorescence microplate cytometry (ACUMEN)
# Method: For this purpose, a technique suitable for screening of compounds was applied. Laser-scanning fluorescence microplate cytometry (ACUMEN technique, LIT) allows the distinct multiparametric analysis of single fluorescent cells in microplates (Bowen and Wylie, 2006). For laser-scanning fluorescence microplate cytometer (Acumen) cells were plated in 96 well plates (Biocat, black). Serum-starved cells were treated as indicated. Briefly, cells were fixed in 3.75% para-formaldehyde (Sigma) for 20 minutes. Subsequently, quenching occurred with […] NH4Cl. Cells were blocked with an adequate blocking solutions for a minimum of 1 hour. Primary antibody (monoclonal anti-myc 9E10, Santa Cruz, sc-40) was incubated for 1 hour. The secondary goat-anti mouse IgG (Alexa Fluor 488, Molecular Probes) was incubated in the presence of Sytox-orange for 1 hour (Bowen and Wylie, 2006).
# Based on this highly sensitive procedure it is possible to screen various cell numbers for plasma-membrane based GLUT4-myc-display. Cells were counter-stained with a DNA dye (SytoxOrange) to confirm equal cell numbers.
# GLUT4-myc = assay: Immunofluorescence localization of GLUT4-myc; conditions: insulin 100 nM, 20 minutes; L6-GLUT4-myc-tetR-AS160-like
# Method: Cells were grown on sterile cover slides in 12 well plates. Expression of isoform2 of AS160 was induced with doxycyclin treatment for 48 hours. Serum-starved cells were treated with 100 nM insulin for 20 minutes or were left untreated. After stimulation, cells were fixed in 3.75% para-formaldehyde (Sigma) for 20 minutes. Subsequently, cells were permeabilised with 0.1% TritonX100 in PBS (Icon Biomedicals) or left unpermeabilised (as indicated) for 5 minutes at room temperature. The permeabilisation procedure allows the detection of intracellular localized compartments. Membrane-bound proteins are visualized without permeabilising the cells. Blocking of cells occurred for a minimum of 1 hour in PBS+1% BSA (USB). Primary antibodies (monoclonal anti-myc, Santa Cruz, sc-40 and polyclonal anti-AS160 Upstate) were incubated overnight. The secondary antibodies used are anti-rabbit Alexa488 to detect isoform2 of AS160 and anti-mouse A546 to detect GLUT4-myc. Incubation occurred is for 1 hour (dark). Cells were mounted in 15 μl Dako Cytomation Fluorescent Mounting Medium (DakoCytomation), examined by confocal laser-scanning microscopy with Leica DM IRE2 and analyzed with Leica DM SDK software.
# [5] = metformin 800 μM overnight, normal and insulin-resistant conditions
# [6] = without expression of isoform 2 of AS160
# [7] = with doxycyclin-induced expression of isoform 2 of AS160
# [8] = high glucose plus insulin conditions
# [9] = high glucose plus insulin overnight (25 mM glucose+10 nM insulin)
compound,measurement,setting,value
"N#CC(=C(/N)Sc1ccccc1N)/C(C#N)=C(\N)Sc1ccccc1N [U0126, reference compound]",effect on uptake of glucose,"L6-GLUT4myc cells [1]; U0126 10 μM, 20 μM, additional stimulation with 5 nM insulin, mainly in cells expressing isoform2 of AS160",significantly improved uptake of glucose
"CN(C)C(=N)N=C(N)N [metformin, dimethylbiguanide, reference compound]",effect on activation of AKT,AKT (Ser 473) [2]; [5],no effect
same,effect on activation of AS160,AS160 (Thr 642); [5],no effect
"NC(=O)c1ncn([C@@H]2O[C@H](CO)[C@@H](O)[C@H]2O)c1N [AICAR, 5-Aminoimidazole-4-carboxaide 1-beta-D-ribofuranoside, reference compound]",effect of expression of isoform 2 of AS160 on stimulated glucose uptake,L6-GLUT4myc cells [1]; with vs without isoform 2 of AS160,no additional effect
same,"uptake of glucose (2-deoxyglucose), fold increase after stimulation",L6-GLUT4myc cells [1]; [6],1.5 fold
insulin like growth factor-1 [IGF-1],"uptake of glucose (2-deoxyglucose), fold increase after stimulation",L6-GLUT4myc cells [1]; [7],up to 5 fold
same,"uptake of glucose (2-deoxyglucose), fold increase after stimulation",L6-GLUT4myc cells [1]; [6],3 fold
"C[C@H]1c2cccc(O)c2C(O)=C2C(=O)[C@]3(O)C(O)=C(C(N)=O)C(=O)[C@@H](N(C)C)[C@@H]3[C@@H](O)[C@@H]21 [doxycyclin, reference compound]",increase of glucose uptake induced by doxycyclin,"L6-GLUT4myc cells [1]; doxycyclin 48 hours, insulin 20 minutes, correlated with isoform2 of AS160 protein levels",dose-dependent manner
same,increase of the number of GFP expressing cells,L6-GLUT4myc cells [3],about 10 fold
"1 L-6-hydroxymethyl-chiro-inositol 2-(R)-2-O-methyl-3-O-octadecylcarbonate [AKT inhibitor Calb., reference compound]",effect on insulin-stimulated phosphorylation of AKT (Ser 473),"AKT (Ser 473) [4]; pre-incubation 1 hour (wortmannin 200 nM, AKT inhibitor Calb. 50 μM), then insulin 10 nM 20 minutes",no effect
insulin,time at which the maximum of glucose uptake is observed,"L6-GLUT4myc cells [1]; 50 nM insulin, time points 5, 15, 30 minutes",≤ 5 min
same,"uptake of glucose (2-deoxyglucose), fold increase after stimulation",L6-GLUT4myc cells [1]; [7],up to 4 fold
same,phosphorylation of AKT (Ser 473),"AKT (Ser 473) [4]; insulin 5 nM to 50 nM, 20 minutes",induced the phosphorylation of AKT (Ser 473)
same,AKT phosphorylation signal compared to untreated conditions (normal Glc),AKT (Ser 473) [2]; [8],72%
same,AKT (Ser 473) phosphorylation under insulin-resistant conditions,AKT (Ser 473) [2]; [9],dose-dependent manner
same,AKT phosphorylation (Ser 473),"AKT (Ser 473) [2]; normal conditions, insulin 20 minutes",dose-dependent manner
same,AS160 phosphorylation signal compared to untreated conditions (normal Glc),AS160 (Thr 642); [8],72%
same,AS160 (Thr 642) phosphorylation under insulin-resistant conditions,AS160 (Thr 642); [9],dose-dependent manner
same,phosphorylation of full-length or isoform2 of AS160 (Thr 642),"AS160 (Thr 642); normal conditions, doxycyclin-induced cells, insulin 20 minutes",dose-dependent manner
same,increased translocation of GLUT4 to the plasma membrane,"GLUT4; 100 nM insulin 20 minutes, doxycyclin-induced expression of AS160-like protein",~15%
same,GLUT4 translocation,GLUT4; 100 nM insulin alone (no AS160-like expression),slightly induced
same,localization of GLUT4-myc,GLUT4-myc,induces the translocation of GLUT4-myc to the plasma membrane
